Each structure is given as a SMILES string.

This assay deals with T1, ERα protein (HiBiT-tagged) in ESR1_HiBiT KI MCF7 cells (Homo sapiens, UniProt P03372).
T1 sequence (P03372 1-595): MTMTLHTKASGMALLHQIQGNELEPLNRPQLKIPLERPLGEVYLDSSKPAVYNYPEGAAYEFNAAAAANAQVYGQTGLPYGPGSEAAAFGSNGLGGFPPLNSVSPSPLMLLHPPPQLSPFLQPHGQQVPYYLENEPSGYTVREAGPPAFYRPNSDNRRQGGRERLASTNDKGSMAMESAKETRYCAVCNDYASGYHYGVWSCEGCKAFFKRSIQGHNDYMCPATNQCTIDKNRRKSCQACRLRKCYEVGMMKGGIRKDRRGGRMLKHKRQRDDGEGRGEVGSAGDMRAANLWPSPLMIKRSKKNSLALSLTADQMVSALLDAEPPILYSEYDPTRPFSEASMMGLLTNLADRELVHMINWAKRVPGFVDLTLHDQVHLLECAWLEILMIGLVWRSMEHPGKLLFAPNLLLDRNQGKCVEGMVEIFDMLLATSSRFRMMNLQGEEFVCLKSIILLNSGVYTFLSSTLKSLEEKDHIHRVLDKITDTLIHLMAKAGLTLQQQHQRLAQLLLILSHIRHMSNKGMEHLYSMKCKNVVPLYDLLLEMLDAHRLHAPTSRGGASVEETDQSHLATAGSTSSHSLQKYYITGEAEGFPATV
Description: Nano Glo HiBiT Lytic Degradation Assay. The class given is cell-based. The conditions noted are these: 6 hours with compound, 14-point dose response 1:3, bell-shape curve fit, half-maximal effect of first Hill model, read-out: MCF7 ESR1 HiBiT - (DC50). The gist of the method:
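HiBiT-tagged endogenous ERα remaining in MCF7 knock-in cells was quantified by lytic luminescence after a 6 h treatment. DC50 values derive from a bell-shaped curve, taken at the first Hill component's half-maximal effect.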
A general note: With HiBiT, luminescence reflects the tagged protein that the partner subunit can reach.
The DC50 is the midpoint of the concentration-degradation curve. In the case of `O=C1CC[C@H](N2Cc3cc(N4CCN(CC5CCN(c6ccc([C@H]7c8ccc(O)cc8C(F)(F)C[C@H]7c7ccc(C(F)(F)F)cc7)cc6)CC5)CC4)ccc3C2=O)C(=O)N1` [Compound I-330, (S)-3-(5-(4-((1-(4-((1S,2R)-4,4-difluoro-6-hydroxy-2-(4-(trifluoromethyl)phenyl)-1,2,3,4-tetrahydronaphthalen-1-yl)phenyl)piperidin-4-yl)methyl)piperazin-1-yl)-1-oxoisoindolin-2-yl)piperidine-2,6-dione], the 50% degradation concentration (DC50) worked out at 35 nM. With `O=C1CC[C@H](N2Cc3cc(N4CCN(CC5CCN(c6ccc([C@@H]7c8ccc(O)cc8CO[C@@H]7C7CCCCC7)cc6)CC5)CC4)ccc3C2=O)C(=O)N1` [Compound I-34, (S)-3-(5-(4-((1-(4-((3R,4R)-3-cyclohexyl-7-hydroxyisochroman-4-yl)phenyl)piperidin-4-yl)methyl)piperazin-1-yl)-1-oxoisoindolin-2-yl)piperidine-2,6-dione], the DC50 stood at 0.49 nM. On to `Cc1cc([C@H]2c3ccc(O)cc3CC[C@H]2c2ccccc2)ccc1N1CCC(CN2CCN(c3ccc4c(c3)CN([C@H]3CCC(=O)NC3=O)C4=O)CC2)CC1` (single isomer, unassigned) [II-43], for which the DC50 is 2 nM.

As for `O=C1CC[C@H](N2Cc3cc(N4CCN(CC5CCN(c6ccc([C@H]7c8ccc(O)cc8CC[C@H]7c7ccc(C(F)(F)F)cc7)cc6)CC5)CC4)ccc3C2=O)C(=O)N1` (single isomer, unassigned) [II-41], the DC50 was 2 nM. In the case of `Cn1nc(N2CCC(=O)NC2=O)c2ccc(N3CCN(CC4CCN(c5ccc([C@@H]6c7ccc(O)cc7CC[C@@H]6c6ccccc6)cc5)CC4)CC3)cc21` [Compound I-299, 1-(6-(4-((1-(4-((1R,2S)-6-hydroxy-2-phenyl-1,2,3,4-tetrahydronaphthalen-1-yl)phenyl)piperidin-4-yl)methyl)piperazin-1-yl)-1-methyl-1H-indazol-3-yl)dihydropyrimidine-2,4 (1H,3H)-dione], the 50% degradation concentration (DC50) is 1 nM.

On to `O=C1CC[C@H](N2Cc3cc(N4CCN(CC5CCN(c6ccc([C@@H]7c8ccccc8CC[C@@H]7c7ccccc7)cc6)CC5)CC4)ccc3C2=O)C(=O)N1` [Compound I-47, (S)-3-(1-oxo-5-(4-((1-(4-((1R,2S)-2-phenyl-1,2,3,4-tetrahydronaphthalen-1-yl)phenyl)piperidin-4-yl)methyl)piperazin-1-yl)isoindolin-2-yl)piperidine-2,6-dione], for which the DC50 is 79 nM. Consider `O=C1CC[C@H](N2Cc3cc(N4CCN(CC5CCN(c6ccc([C@H]7c8ccc(O)cc8CO[C@H]7c7ccc(F)cc7)cc6)CC5)CC4)ccc3C2=O)C(=O)N1` [Compound I-346, (S)-3-(5-(4-((1-(4-((3R,4S)-3-(4-fluorophenyl)-7-hydroxyisochroman-4-yl)phenyl)piperidin-4-yl)methyl)piperazin-1-yl)-1-oxoisoindolin-2-yl)piperidine-2,6-dione], for which the DC50 was not below 10000 nM. In the case of `Cc1cc(N2CCC(CN3CCN(c4ccc5c(c4)CN([C@H]4CCC(=O)NC4=O)C5=O)CC3)CC2)cc(F)c1[C@H]1c2ccc(O)cc2CC[C@H]1C1CCCCC1` (single isomer, unassigned) [Compound I-235], the DC50 was not below 10000 nM. As for `O=C1CC[C@H](N2Cc3cc(N4CCN(CC5CCN(c6cc(F)c([C@H]7c8ccc(O)cc8CC[C@H]7c7ccccc7)c(F)c6)CC5)CC4)ccc3C2=O)C(=O)N1` [II-103], the DC50 was not below 10000 nM. `O=C1CCN(c2ccc(N3CCC4(CCN(CC5CCN(c6ccc([C@@H]7c8ccc(O)cc8CO[C@@H]7c7ccccc7)cc6)CC5)C4)CC3)cc2)C(=O)N1` [Compound I-391, 1-(4-(2-((1-(4-((3S,4R)-7-hydroxy-3-phenylisochroman-4-yl)phenyl)piperidin-4-yl)methyl)-2,8-diazaspiro[4.5]decan-8-yl)phenyl)dihydropyrimidine-2,4 (1H,3H)-dione]: the 50% degradation concentration (DC50) came out at 0.42 nM.

For the compound `O=C1CC[C@H](N2Cc3cc(N4CCN(CC5CCN(c6ccc([C@H]7c8ccc(O)cc8C(F)(F)C[C@H]7CC7CCCC7)cc6)CC5)CC4)ccc3C2=O)C(=O)N1` [Compound I-229, (3S)-3-[5-[4-[[1-[4-[(1S,2R)-2-(cyclopentylmethyl)-4,4-difluoro-6-hydroxy-tetralin-1-yl]phenyl]-4-piperidyl]methyl]piperazin-1-yl]-1-oxo-isoindolin-2-yl]piperidine-2,6-dione], the DC50 was not below 10000 nM. With `C[C@H](C1CC1)[C@H]1CC(F)(F)c2cc(O)ccc2[C@H]1c1ccc(N2CCC(CN3CCN(c4ccc5c(c4)CN([C@H]4CCC(=O)NC4=O)C5=O)CC3)CC2)cc1` (single isomer, unassigned) [Compound I-228], the DC50 was 15 nM. For `O=C1CC[C@H](N2Cc3cc(N4CCN(CC5CCN(c6ccc([C@H]7CCCc8cc(O)ccc87)cc6)CC5)CC4)ccc3C2=O)C(=O)N1` (single isomer, unassigned) [Compound I-102] the value was not below 10000 nM.

For the compound `O=C1CC[C@H](N2Cc3cc(N4CCN(CC5CCN(c6ccc([C@@H]7c8ccc(O)cc8CC[C@@H]7C7=CCCCC7)cc6)CC5)CC4)ccc3C2=O)C(=O)N1` (single isomer, unassigned) [Compound I-407], the 50% degradation concentration (DC50) turned out to be 0.19 nM. In the case of `Cn1nccc1[C@@H]1CCc2cc(O)ccc2[C@@H]1c1ccc(N2CCC(CN3CCN(c4ccc5c(c4)CN([C@H]4CCC(=O)NC4=O)C5=O)CC3)CC2)cc1` (single isomer, unassigned) [Compound I-25], the DC50 is 0.02 nM. On to `Cc1ccc([C@H]2OCc3cc(O)ccc3[C@H]2c2ccc(N3CCC(CN4CCN(c5ccc6c(c5)CN([C@H]5CCC(=O)NC5=O)C6=O)CC4)CC3)cc2)cc1` [Compound I-354, (S)-3-(5-(4-((1-(4-((3S,4R)-7-hydroxy-3-(p-tolyl)isochroman-4-yl)phenyl)piperidin-4-yl)methyl)piperazin-1-yl)-1-oxoisoindolin-2-yl)piperidine-2,6-dione], for which the DC50 amounted to 0.3 nM.

Consider `C[C@H]1C[C@@H](c2ccccc2)[C@@H](c2ccc(N3CCC(CN4CCN(c5ccc6c(c5)CN([C@H]5CCC(=O)NC5=O)C6=O)CC4)CC3)cc2)c2ccc(O)cc21` (single isomer, unassigned) [Compound I-331], for which the half-maximal degradation concentration (DC50) is not below 10000 nM. For `O=C1CCC(N2Cc3cc([C@H]4CCN(CC5CCN(c6ccc([C@@H]7c8ccc(O)cc8CC[C@@H]7c7ccccc7)cc6)CC5)C[C@H]4O)ccc3C2=O)C(=O)N1` (single isomer, unassigned) [II-108], the 50% degradation concentration (DC50) came out at 0.45 nM. On to `O=C1CC[C@H](N2Cc3cc(N4CCN(CC5CCN(c6cc(F)c([C@H]7c8ccc(O)cc8CC[C@H]7C7CCCCC7)c(F)c6)CC5)CC4)ccc3C2=O)C(=O)N1` [Compound I-118, (S)-3-(5-(4-((1-(4-((1R,2S)-2-cyclohexyl-6-hydroxy-1,2,3,4-tetrahydronaphthalen-1-yl)-3,5-difluorophenyl)piperidin-4-yl)methyl)piperazin-1-yl)-1-oxoisoindolin-2-yl)piperidine-2,6-dione], for which the DC50 worked out at 600 nM. `O=C1CC[C@H](N2Cc3cc(N4CCN(CC5CCN(c6ccc(C7c8ccc(O)cc8CCC7C7CCCCC7)cn6)CC5)CC4)ccc3C2=O)C(=O)N1` (stereo in doubt) [Compound I-155, (S)-3-(5-(4-((1-(5-((1R,2S)-2-cyclohexyl-6-hydroxy-1,2,3,4-tetrahydronaphthalen-1-yl)pyridin-2-yl)piperidin-4-yl)methyl)piperazin-1-yl)-1-oxoisoindolin-2-yl)piperidine-2,6-dione]: the DC50 was 1 nM.

Source of the values: US20250388565A1, “ESTROGEN RECEPTOR ALPHA DEGRADERS AND METHODS OF USE THEREOF” (Relay Therapeutics, Inc., priority 2022, published 2025).
